Results taken from ChEMBL document CHEMBL5214942, “Discovery of biphenyls bearing thiobarbiturate fragment by structure-based strategy as Mycobacterium tuberculosis protein tyrosine phosphatase B inhibitors” (Bioorg Med Chem, 2022).
≈ marks a conversion by molar mass, not a printed value. Calls of active or inactive are those of the source. No cut-off for these calls is given here.

How the values were obtained:
[1] = Cytotoxicity against mouse J774.A1 cells after 48 hrs by MTT assay; type: toxicity, cell-based
[2] = Cytotoxicity against African green monkey Vero cells after 48 hrs by MTT assay; type: toxicity, cell-based; details: African green monkey (Chlorocebus sabaeus)
[3] = tested on: Mycobacterium tuberculosis; experiment: Antimycobacterial activity against Mycobacterium tuberculosis H37Rv measured by microplate alamar blue assay; type: functional
[4] = biological target: T1, Phosphotyrosine-protein phosphatase PTPB (Mycobacterium tuberculosis, UniProt P96830); experiment: Inhibition of recombinant Mycobacterium tuberculosis H37Rv MptpB using pNPP as substrate incubated for 10 mins and measured by spectrophotometric method
T1 sequence (P96830 whole entry): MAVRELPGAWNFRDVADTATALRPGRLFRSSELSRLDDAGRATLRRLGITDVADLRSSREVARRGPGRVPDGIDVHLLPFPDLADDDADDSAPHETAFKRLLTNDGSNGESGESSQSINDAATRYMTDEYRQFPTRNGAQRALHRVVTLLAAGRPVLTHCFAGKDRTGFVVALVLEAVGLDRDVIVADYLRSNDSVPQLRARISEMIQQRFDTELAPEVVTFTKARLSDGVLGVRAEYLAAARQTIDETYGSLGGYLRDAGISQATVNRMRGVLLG

[5] = biological target: T2, Low molecular weight protein-tyrosine phosphatase A (Mycobacterium tuberculosis) (UniProt P9WIA1); experiment: Inhibition of recombinant Mycobacterium tuberculosis H37Rv MptpA using pNPP as substrate at 50 uM incubated for 10 mins and measured by spectrophotometric method relative to control
T2 sequence (whole entry): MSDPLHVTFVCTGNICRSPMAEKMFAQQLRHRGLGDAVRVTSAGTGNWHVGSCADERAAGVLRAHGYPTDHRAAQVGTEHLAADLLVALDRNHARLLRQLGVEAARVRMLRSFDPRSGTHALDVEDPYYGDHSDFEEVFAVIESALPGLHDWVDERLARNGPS

[6] = biological target: T3, Tyrosine-protein phosphatase non-receptor type 1 (Homo sapiens) (UniProt P18031); experiment: Inhibition of recombinant human PTP1B using pNPP as substrate preincubated for 5 mins followed by substrate addition assessed as reduction in p-nitrophenol release at 50 uM relative to control
T3 sequence (whole entry): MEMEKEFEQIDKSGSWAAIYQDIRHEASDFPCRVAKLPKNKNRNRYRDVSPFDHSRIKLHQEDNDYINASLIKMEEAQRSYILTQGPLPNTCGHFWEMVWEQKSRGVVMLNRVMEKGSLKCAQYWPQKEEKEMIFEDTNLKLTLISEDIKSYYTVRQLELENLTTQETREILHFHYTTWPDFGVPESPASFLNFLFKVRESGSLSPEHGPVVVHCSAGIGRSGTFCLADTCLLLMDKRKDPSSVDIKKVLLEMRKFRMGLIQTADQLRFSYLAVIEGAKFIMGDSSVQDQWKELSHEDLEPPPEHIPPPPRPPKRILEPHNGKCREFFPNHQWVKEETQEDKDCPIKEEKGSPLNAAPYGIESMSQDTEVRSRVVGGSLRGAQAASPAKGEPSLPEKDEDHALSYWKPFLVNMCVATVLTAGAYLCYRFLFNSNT

[7] = biological target: T4, Phosphotyrosine-protein phosphatase PTPB (Mycobacterium tuberculosis) (UniProt P96830); experiment: Inhibition of recombinant Mycobacterium tuberculosis H37Rv MptpB using pNPP as substrate incubated for 10 mins at 50 uM and measured by spectrophotometric method relative to control
T4 sequence (whole entry): T1 sequence (P96830 whole entry)

[8] = biological target: T5, Tyrosine-protein phosphatase non-receptor type 1 (Homo sapiens, UniProt P18031); experiment: Inhibition of recombinant human PTP1B using pNPP as substrate preincubated for 5 mins followed by substrate addition assessed as reduction in p-nitrophenol release
T5 sequence (P18031 whole entry): T3 sequence (whole entry)

[9] = biological target: T6, Low molecular weight protein-tyrosine phosphatase A (Mycobacterium tuberculosis, UniProt P9WIA1); experiment: Inhibition of recombinant Mycobacterium tuberculosis H37Rv MptpA using pNPP as substrate incubated for 10 mins and measured by spectrophotometric method
T6 sequence (P9WIA1 whole entry): T2 sequence (whole entry)

[10] = tested on: Mycobacterium tuberculosis; experiment: Antimycobacterial activity against Mycobacterium tuberculosis infected in mouse J774.A1 cells assessed as reduction in intracellular bacterial burden at 1 to 10 ug/ml measured by colony counting method; type: functional, organism-based; details: dose 1-10 µg/ml
[11] = biological target: T1, Phosphotyrosine-protein phosphatase PTPB; experiment: Non-competitive inhibition of recombinant Mycobacterium tuberculosis H37Rv MptpB using pNPP as substrate
[12] = tested on: Mycobacterium tuberculosis; experiment: Antimycobacterial activity against Mycobacterium tuberculosis infected in mouse J774.A1 cells assessed as reduction in intracellular bacterial burden at 5 ug/ml measured by colony counting method; type: functional; parameters: scale not given: the % may be the effect or the level left; details: dose 5 µg/ml

| Structure (SMILES) | IC50 at 48 h [1] | IC50 at 48 h [2] | MIC [3] | IC50 [4] | inhibition [7] | further results |
| --- | --- | --- | --- | --- | --- | --- |
| O=C1NC(=S)NC(=O)C1=Cc1cc(-c2cc(Cl)c(O)c(Cl)c2)ccc1OCc1ccccc1 | 3.44 µg/mL (≈ 6.89 µM) | > 64 µg/mL | 25.1 µg/mL (≈ 50.2 µM) | 3.81 µM | 95.4% | inhibition [5]: 14.6%; inhibition [6]: 87.7%; IC50 [8]: 27.3 µM |
| O=C1NC(=S)NC(=O)C1=Cc1ccc(OCc2ccc(Cl)cc2)cc1-c1cc(Cl)c(O)c(Cl)c1 | 57 µg/mL (≈ 107 µM) | > 64 µg/mL | > 32 µg/mL | 3.62 µM | 95% | inhibition [5]: 49%; inhibition [6]: 78.6%; IC50 [8]: 34.1 µM |
| O=C1NC(=S)NC(=O)C1=Cc1cc(Br)ccc1OCc1ccc(Cl)cc1 |  |  |  | 22.4 µM | 63% |  |
| O=C1NC(=S)NC(=O)C1=Cc1cc(-c2ccc(C(F)(F)F)cc2)ccc1OCc1ccc(Cl)cc1 | 14.8 µg/mL (≈ 28.6 µM) | > 64 µg/mL | > 32 µg/mL | 3.82 µM | 86.4% | IC50 [9]: 20 µM; inhibition [5]: 74.2%; inhibition [6]: 81.4%; IC50 [8]: 3.93 µM |
| O=C1NC(=S)NC(=O)C1=Cc1cc(-c2cc3ccccc3s2)ccc1OCc1ccc(Cl)cc1 |  |  |  |  | 57.5% |  |
| O=C1NC(=S)NC(=O)C1=Cc1cc(-c2ccccc2)ccc1OCc1ccc(Cl)cc1 |  |  |  |  | 43.9% |  |
| O=C1NC(=S)NC(=O)C1=Cc1cc(-c2ccc3occc(=O)c3c2)ccc1OCc1ccc(Cl)cc1 |  |  |  |  | 73% |  |
| O=C(C(c1ccccc1)S(=O)(=O)O)N1CCCC2CCCCC21 (configuration not stated) |  |  |  | 0.018 µM |  |  |
| Cc1onc(C(=O)O)c1-c1cccc(-c2cc(Cl)c(O)c(Cl)c2)c1 |  |  |  | 2.98 µM |  |  |
| Cc1cc(-c2ccc(OCc3ccc(Cl)cc3)c(C=C3C(=O)NC(=S)NC3=O)c2)cc(C)c1O |  |  |  |  | 59.2% |  |
| O=C1NC(=S)NC(=O)C1=Cc1cc(-c2cc(Cl)c(O)c(Cl)c2)ccc1OCc1cc(F)cc(F)c1 | 15.4 µg/mL (≈ 28.8 µM) | > 64 µg/mL | > 32 µg/mL | 5.32 µM | 89.1% | inhibition [6]: 92.3%; IC50 [8]: 6.28 µM |
| O=C1NC(=O)C(=Cc2cc(-c3cc(Cl)c(O)c(Cl)c3)ccc2OCc2ccc(Cl)cc2)C(=O)N1 |  |  |  |  | 16.2% |  |
| O=C1NC(=S)NC(=O)C1=Cc1cc(-c2ccc(Cl)cc2)ccc1OCc1ccc(Cl)cc1 |  |  |  |  | 77.5% |  |
| O=C1NC(=S)NC(=O)C1=Cc1cc(-c2ccc(O)c(F)c2)ccc1OCc1ccc(Cl)cc1 |  |  |  |  | 65% |  |
| O=C1NC(=S)NC(=O)C1=Cc1ccc(-c2cc(Cl)c(O)c(Cl)c2)c(OCc2ccc(Cl)cc2)c1 |  |  |  |  | 75.2% |  |
| CN1C(=O)C(=Cc2cc(-c3cc(Cl)c(O)c(Cl)c3)ccc2OCc2ccc(Cl)cc2)C(=O)N(C)C1=O |  |  |  |  | 51.9% |  |
| O=C1NC(=S)NC(=O)C1=Cc1cc(-c2ccc(O)c(Cl)c2)ccc1OCc1ccc(Cl)cc1 |  |  |  |  | 72.7% |  |
| COc1ccc(-c2ccc(OCc3ccc(Cl)cc3)c(C=C3C(=O)NC(=S)NC3=O)c2)cc1 |  |  |  |  | 42.7% |  |
| O=C1NC(=S)NC(=O)C1=Cc1ccc(OCc2ccc(Cl)cc2)c(-c2cc(Cl)c(O)c(Cl)c2)c1 | 13.9 µg/mL (≈ 26 µM) | > 64 µg/mL | > 32 µg/mL | 5.95 µM | 84.4% | inhibition [5]: 69.6%; inhibition [6]: 98.2%; IC50 [8]: 3.43 µM |
| CN1C(=O)C(=Cc2cc(-c3cc(Cl)c(O)c(Cl)c3)ccc2OCc2ccc(Cl)cc2)C(=O)N(C)C1=S |  |  |  | 14.1 µM | 87% |  |
| CO[C@H]1/C=C/O[C@@]2(C)Oc3c(C)c(O)c4c(O)c(c(/C=N/N5CCN(C)CC5)c(O)c4c3C2=O)NC(=O)/C(C)=C\C=C\[C@H](C)[C@H](O)[C@@H](C)[C@@H](O)[C@@H](C)[C@H](OC(C)=O)[C@@H]1C [RIFAMPIN] | > 64 µg/mL | > 64 µg/mL | 0.037 µg/mL (≈ 0.045 µM) |  |  |  |
| COC(=O)c1ccc(-c2ccc(OCc3ccc(Cl)cc3)c(C=C3C(=O)NC(=S)NC3=O)c2)cc1 |  |  |  |  | 63.3% |  |
| O=C1NC(=S)NC(=O)C1=Cc1cc(-c2cc(Cl)c(O)c(Cl)c2)ccc1OCc1ccc(Cl)cc1 | 13 µg/mL (≈ 24.4 µM) | > 64 µg/mL | > 32 µg/mL | 1.18 µM | 95.9% | IC50 [9]: 8.97 µM; inhibition [5]: 86.4%; inhibition [6]: 98.3%; Activity [10]: Active; Ki [11]: 1.01 µM; Activity [12]: 90%; IC50 [8]: 5.16 µM |
| NNC(=O)c1ccncc1 [ISONIAZID] | > 64 µg/mL | > 64 µg/mL | 0.072 µg/mL (≈ 0.525 µM) |  |  |  |
| O=C1NC(=S)NC(=O)C1=Cc1c(OCc2ccc(Cl)cc2)cccc1-c1cc(Cl)c(O)c(Cl)c1 |  |  |  |  | 45.5% |  |
| O=C1NC(=S)NC(=O)C1=Cc1cc(OCc2ccc(Cl)cc2)cc(-c2cc(Cl)c(O)c(Cl)c2)c1 | 39.9 µg/mL (≈ 74.7 µM) | > 64 µg/mL | > 32 µg/mL | 4.7 µM | 91.6% | inhibition [5]: 39.7%; inhibition [6]: 93.7%; IC50 [8]: 7.81 µM |
| O=C1NC(=S)NC(=O)C1=Cc1cc(-c2ccc(OC(F)(F)F)cc2)ccc1OCc1ccc(Cl)cc1 |  |  |  |  | 65% |  |
| C/C=C(\C)[C@@H]1C(C)=C[C@@H]2CC(C)=CC[C@H]2[C@@H]1/C=C/C=C(\C)[C@@H](O)[C@@H](C)C(=O)O |  |  |  | 1.05 µM |  |  |
